Assays:
[1] = biological target: EGFR (human), P00533 [WT]
[2] = biological target: EGFR (human), P00533 [L858R]
EGFR (human) [3] = biological target: EGFR (human) (UniProt P00533); conditions: a549
EGFR (human) [4] = biological target: EGFR (human) (UniProt P00533); conditions: hcc827
EGFR (human) [5] = biological target: EGFR (human) (UniProt P00533); conditions: h1975

Sequence of EGFR (human) (P00533 whole entry, looked up): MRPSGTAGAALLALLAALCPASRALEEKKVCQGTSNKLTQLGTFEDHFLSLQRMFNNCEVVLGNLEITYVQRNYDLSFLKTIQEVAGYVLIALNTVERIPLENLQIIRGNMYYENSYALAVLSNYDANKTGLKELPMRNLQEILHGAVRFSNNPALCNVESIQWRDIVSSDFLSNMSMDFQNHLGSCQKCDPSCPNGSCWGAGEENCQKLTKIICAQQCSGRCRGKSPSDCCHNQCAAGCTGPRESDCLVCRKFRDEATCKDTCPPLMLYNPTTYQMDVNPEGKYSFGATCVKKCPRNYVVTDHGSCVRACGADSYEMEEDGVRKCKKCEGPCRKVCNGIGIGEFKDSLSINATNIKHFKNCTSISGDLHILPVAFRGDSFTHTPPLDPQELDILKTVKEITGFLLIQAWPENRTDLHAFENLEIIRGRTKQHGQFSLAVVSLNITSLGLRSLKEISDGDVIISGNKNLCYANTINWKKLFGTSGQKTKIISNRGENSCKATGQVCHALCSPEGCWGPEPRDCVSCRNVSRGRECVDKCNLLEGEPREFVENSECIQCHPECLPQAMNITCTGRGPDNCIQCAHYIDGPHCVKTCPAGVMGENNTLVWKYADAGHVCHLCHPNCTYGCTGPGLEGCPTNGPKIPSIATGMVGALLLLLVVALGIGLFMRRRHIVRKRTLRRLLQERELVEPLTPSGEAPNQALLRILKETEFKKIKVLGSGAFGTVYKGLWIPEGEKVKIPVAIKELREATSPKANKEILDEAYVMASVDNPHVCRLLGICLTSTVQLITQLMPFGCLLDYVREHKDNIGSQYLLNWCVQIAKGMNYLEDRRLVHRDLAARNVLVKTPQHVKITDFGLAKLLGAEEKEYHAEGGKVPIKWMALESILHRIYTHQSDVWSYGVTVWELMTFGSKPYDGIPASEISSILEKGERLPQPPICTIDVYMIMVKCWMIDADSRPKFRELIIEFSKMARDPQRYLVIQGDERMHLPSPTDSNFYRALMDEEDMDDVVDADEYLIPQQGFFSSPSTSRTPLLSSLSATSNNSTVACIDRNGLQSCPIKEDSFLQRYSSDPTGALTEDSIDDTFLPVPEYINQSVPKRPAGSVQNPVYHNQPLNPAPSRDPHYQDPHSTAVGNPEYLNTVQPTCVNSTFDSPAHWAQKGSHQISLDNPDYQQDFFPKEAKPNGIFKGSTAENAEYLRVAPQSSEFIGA
Sequence of EGFR (human), P00533 [WT] (P00533 whole entry, looked up): as above
Sequence of EGFR (human), P00533 [L858R] (P00533 whole entry L858R, looked up): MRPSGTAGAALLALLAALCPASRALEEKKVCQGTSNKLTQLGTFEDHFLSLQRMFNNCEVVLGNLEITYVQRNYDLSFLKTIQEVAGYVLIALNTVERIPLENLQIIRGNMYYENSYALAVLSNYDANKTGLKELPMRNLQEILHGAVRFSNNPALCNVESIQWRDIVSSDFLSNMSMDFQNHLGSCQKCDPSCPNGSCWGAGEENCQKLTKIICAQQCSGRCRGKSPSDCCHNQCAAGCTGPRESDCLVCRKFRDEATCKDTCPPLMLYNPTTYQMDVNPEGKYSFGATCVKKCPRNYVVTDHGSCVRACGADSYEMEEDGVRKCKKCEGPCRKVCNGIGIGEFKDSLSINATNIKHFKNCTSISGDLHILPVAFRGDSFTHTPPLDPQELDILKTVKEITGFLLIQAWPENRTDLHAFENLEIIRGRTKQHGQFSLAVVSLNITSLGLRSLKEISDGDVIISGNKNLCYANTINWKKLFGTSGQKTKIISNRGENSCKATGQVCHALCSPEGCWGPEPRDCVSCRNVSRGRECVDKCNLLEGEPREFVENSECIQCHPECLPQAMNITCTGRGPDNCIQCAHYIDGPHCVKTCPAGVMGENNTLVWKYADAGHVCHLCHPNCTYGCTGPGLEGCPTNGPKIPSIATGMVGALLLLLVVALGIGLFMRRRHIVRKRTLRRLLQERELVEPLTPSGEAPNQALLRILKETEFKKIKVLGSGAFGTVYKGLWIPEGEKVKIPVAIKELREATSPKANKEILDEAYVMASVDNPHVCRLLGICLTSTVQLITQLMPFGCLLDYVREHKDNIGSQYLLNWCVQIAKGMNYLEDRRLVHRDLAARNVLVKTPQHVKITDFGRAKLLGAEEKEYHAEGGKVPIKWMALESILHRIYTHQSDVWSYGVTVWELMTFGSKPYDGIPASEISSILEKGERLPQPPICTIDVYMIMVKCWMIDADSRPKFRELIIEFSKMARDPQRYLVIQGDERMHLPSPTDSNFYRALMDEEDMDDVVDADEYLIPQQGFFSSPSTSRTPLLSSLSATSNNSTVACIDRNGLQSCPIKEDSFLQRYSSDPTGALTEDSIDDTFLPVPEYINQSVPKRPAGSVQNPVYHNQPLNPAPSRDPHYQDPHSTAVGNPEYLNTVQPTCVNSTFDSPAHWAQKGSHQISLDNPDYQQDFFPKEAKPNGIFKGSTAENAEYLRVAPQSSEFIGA

IC50 [1] | IC50 [2] | IC50 (EGFR (human) [3]) | IC50 (EGFR (human) [4]) | IC50 (EGFR (human) [5]) | Structure (SMILES)
7670 nM | > 16000 nM | 1240 nM | 2580 nM | 1060 nM | COc1cc2c(Oc3ccc(NC(=O)C4=C(C)N(C)C(c5ccccc5)C4=O)cc3F)ccnc2cc1OCCCN1CCN(C)CC1 (configuration not stated)
> 16000 nM | > 16000 nM | 1190 nM | 2510 nM | 1460 nM | COc1cc2c(Oc3ccc(NC(=O)C4=C(C)N(C)C(c5ccccc5)C4=O)cc3F)ccnc2cc1OCCCN1CCOCC1 (configuration not stated)
 |  | > 10000 nM |  | > 10000 nM | COc1cc2c(Oc3ccc(NS(=O)(=O)c4ccc(-c5cnn(C)c5)cc4)cc3F)ccnc2cc1OCCCN1CCN(C)CC1
